From BindingDB's records for doi:10.1021/jm981008a (1998) come the findings set out here.

Test [1] addresses Sodium-dependent noradrenaline transporter (Homo sapiens, UniProt P23975). The test is described as follows: The compound was tested in vitro for binding affinity for the norepinephrine transporter (NET) using competitive binding assay.
The target in test [2] is T1, Sodium-dependent dopamine transporter (Homo sapiens, UniProt Q01959). As to the kind of experiment: The compound was tested in vitro for high binding affinity for the Dopamine transporter (DAT) using competitive binding assay.
T1 sequence (Q01959 whole entry): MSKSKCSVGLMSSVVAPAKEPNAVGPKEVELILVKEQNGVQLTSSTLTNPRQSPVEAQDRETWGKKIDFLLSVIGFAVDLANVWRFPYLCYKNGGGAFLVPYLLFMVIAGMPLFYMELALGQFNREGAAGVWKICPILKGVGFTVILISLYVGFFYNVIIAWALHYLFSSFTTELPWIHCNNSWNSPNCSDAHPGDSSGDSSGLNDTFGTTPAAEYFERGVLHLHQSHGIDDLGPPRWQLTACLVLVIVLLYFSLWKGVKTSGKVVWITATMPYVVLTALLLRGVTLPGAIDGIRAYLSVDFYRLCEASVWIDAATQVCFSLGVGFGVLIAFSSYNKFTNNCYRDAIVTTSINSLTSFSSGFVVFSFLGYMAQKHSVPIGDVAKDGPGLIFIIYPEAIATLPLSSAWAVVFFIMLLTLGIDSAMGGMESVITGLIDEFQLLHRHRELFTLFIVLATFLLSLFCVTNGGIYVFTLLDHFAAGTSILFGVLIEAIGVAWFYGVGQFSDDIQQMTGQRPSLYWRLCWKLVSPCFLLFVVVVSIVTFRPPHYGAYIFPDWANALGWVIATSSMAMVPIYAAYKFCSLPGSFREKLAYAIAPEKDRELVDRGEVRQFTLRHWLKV
Test [3] concerns the target T1, Sodium-dependent dopamine transporter. As to the kind of experiment: The compound was tested in vitro for low binding affinity for the Dopamine transporter (DAT) using competitive binding assay.
Test [4] concerns the target Sodium-dependent serotonin transporter (Homo sapiens, UniProt P31645). The test is described as follows: The compound was tested in vitro for binding affinity for the serotonin transporter (5-HTT) using competitive binding assay.

Sodium-dependent serotonin transporter, sequence (P31645 whole entry): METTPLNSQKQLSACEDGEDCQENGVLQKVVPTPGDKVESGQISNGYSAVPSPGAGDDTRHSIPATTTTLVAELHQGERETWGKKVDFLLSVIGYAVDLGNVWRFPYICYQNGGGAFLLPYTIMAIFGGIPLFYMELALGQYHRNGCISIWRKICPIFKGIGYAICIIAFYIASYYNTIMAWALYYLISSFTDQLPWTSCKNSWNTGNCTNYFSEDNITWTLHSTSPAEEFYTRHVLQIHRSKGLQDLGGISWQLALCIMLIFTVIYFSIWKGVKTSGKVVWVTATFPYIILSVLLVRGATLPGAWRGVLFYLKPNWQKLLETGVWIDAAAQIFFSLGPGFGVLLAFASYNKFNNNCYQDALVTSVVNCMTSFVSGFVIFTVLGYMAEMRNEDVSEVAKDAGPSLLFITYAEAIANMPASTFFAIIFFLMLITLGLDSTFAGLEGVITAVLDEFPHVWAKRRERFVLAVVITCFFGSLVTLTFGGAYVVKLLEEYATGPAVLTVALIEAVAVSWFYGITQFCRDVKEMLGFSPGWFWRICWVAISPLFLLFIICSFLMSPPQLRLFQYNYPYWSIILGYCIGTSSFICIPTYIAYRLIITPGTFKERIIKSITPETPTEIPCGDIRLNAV
Sodium-dependent noradrenaline transporter, sequence (P23975 whole entry): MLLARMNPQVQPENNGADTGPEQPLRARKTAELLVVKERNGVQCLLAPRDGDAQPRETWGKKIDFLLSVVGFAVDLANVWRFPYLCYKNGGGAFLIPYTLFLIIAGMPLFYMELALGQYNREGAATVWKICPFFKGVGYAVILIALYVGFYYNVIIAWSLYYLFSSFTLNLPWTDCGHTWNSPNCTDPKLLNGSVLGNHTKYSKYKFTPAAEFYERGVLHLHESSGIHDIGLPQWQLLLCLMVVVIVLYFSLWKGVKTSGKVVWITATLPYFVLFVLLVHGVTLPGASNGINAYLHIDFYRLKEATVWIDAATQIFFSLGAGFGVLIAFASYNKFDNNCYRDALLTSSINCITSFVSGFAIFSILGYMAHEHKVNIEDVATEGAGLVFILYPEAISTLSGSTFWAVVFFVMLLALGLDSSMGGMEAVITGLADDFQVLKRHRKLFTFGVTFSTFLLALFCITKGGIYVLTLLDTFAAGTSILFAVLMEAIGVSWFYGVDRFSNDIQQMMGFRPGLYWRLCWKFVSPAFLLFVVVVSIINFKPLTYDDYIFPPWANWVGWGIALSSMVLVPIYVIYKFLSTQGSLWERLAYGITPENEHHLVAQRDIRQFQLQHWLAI

Take `CN1C2CCC1[C@@H](COC(=O)CC[S+]1CC[S+](C)[Re]1([Br])([CH]=O)([CH]=O)[CH]=O)[C@@H](c1ccc(F)cc1)C2` (some centres undefined) [Rhenium complex of 3-(2-Bromo-2,2,2-triformyl-3-methyl-1lambda*4*,2lambda*6*,3lambda*4*-[1,2,3]dithiolan-1-yl)-propionic acid 3-(4-fluoro-phenyl)-8-methyl-8-aza-bicyclo[3.2.1]oct-2-ylmethyl ester]: the IC50 in test [1] was 7.3 nM; in test [2], 0.146 nM; in test [3], 20 nM; in test [4], 72 nM.
